{
  "source": "patent US7838468B2",
  "about": "“High molecular weight polyamine salts as clay stabilizing agents” (Baker Hughes Incorporated, priority 2003, dated 2010)",
  "assay": "permeability of Bandera sandstone (clay stabilization)",
  "conditions": "API standard brine and tap water, 150° F. (66° C.)",
  "protocol": "FIG. 1 is a graph of the effect of TMAC and Tap Water on the permeability of Bandera Sandstone at 150° F. (66° C.);\nFIG. 2 is a graph of the effect of A4819 and Tap Water on the permeability of Bandera Sandstone at 150° F. (66° C.); and\nFIG. 3 is a graph of the effect of A4840 and Tap Water on the permeability of Bandera Sandstone at 150° F. (66° C.).\nThe products TMAC (tetramethylammonium chloride), A4819 and A4840 were tested on an API standard brine and tap water on Bandera sandstone for permeability.",
  "data": [
    {"smiles": "C[N+](C)(C)C.[Cl-]", "note": "[TMAC, tetramethylammonium chloride]", "values": [
      {"measurement": "maintaining permeability (measure that the clay is stable)", "result": "performed well"}
    ]}
  ]
}
